In patent US12065428B2, “Anti-viral compounds” (Aligos Therapeutics, Inc., priority 2021, dated 2024):
Like-named read-outs stand apart in the source and are kept apart here.

Key:
SARS-Cov-2 3CLpro = molecular target: T1, SARS-Cov-2 3CLpro (Severe acute respiratory syndrome coronavirus 2, UniProt P0DTD1); test: SARS-Cov-2 3CLpro and HRV3C duplex assay (SAMDI-MS): 3CLpro; type: biochemical; conditions: 3CLpro, duplex assay, 30 mins preincubation; class symbols; read-out: SARS-Cov-2 IC50
T1 construct: SARS-Cov-2 3CLpro and HRV3C Duplex Assay

HRV3C = molecular target: T2, HRV3C (Human rhinovirus 14, UniProt P03303); test: biochemical; conditions: read-out: HRV IC50
T2 construct: SARS-Cov-2 3CLpro and HRV3C Duplex Assay

[1] = tested on: human beta-coronavirus OC43; test: OC43 coronavirus assay in HeLa cells (cytopathic effect, cell-titer-glo); type: cell-based
[2] = Cytotoxicity plates without OC43 virus in HeLa cells; type: cell-based; conditions: human, HeLa cells (uninfected)
Protocol: The human beta-coronavirus OC43 was purchased from ATCC (Manassas, VA) and propagated using HCT-8 human colorectal epithelial cells (ATCC). HeLa human cervical epithelial cells (ATCC) were used as susceptible host cell lines and were cultured using EMEM media, supplemented with 10% fetal bovine serum (FBS), 1% (v/v) penicillin/streptomycin (P/S), 1% (v/v) HEPES and 1% (v/v) cellgro Glutagro™ supplement (all Corning, Manassas, VA) at 37° C. For the OC43 antiviral assay, 1.5×10^4 HeLa cells per well were plated in 100 μL complete media in white 96-well plates with clear bottoms at 37° C. for up to 24 h to facilitate attachment and allow cells to recover from seeding stresses. Next day, the cell culture medium was removed. Serially diluted compounds in 100 μL assay media (EMEM, 2% FBS, 1% P/S, 1% cellgro Glutagro™ supplement, 1% HEPES) were added to the cells and incubated for 4H at 37° C. in a humidified 5% CO2 incubator. 100 μL of OC43 virus stock was diluted to a concentration known to produce optimal cytopathic effect, inducing 80-90% reduction in cell viability. 96-well plates were incubated for 6 (HeLa) days at 33° C.; each plate contains uninfected control wells as well as virus-infected wells that were not treated with compound. Cytotoxicity plates without the addition of OC43 virus were carried out in parallel. At the end of the incubation period, 100 μL cell culture supernatant was replaced with 100 μL cell-titer-glo reagent (Promega, Madison, WI) and incubated for at least 10 min at rt prior to measuring luminescence. Luminescence was measured on a Perkin Elmer (Waltham, MA) Envision plate reader. Antiviral % inhibition was calculated as follows: [(Compound treated cells infected sample)−(no compound infected control)]/[(Uninfected control)−(no compound infected control)]*100; Using GraphPad (San Diego, CA) prism software version 8.3.1, the antiviral dose-response plot was generated as a sigmoidal fit, log(inhibitor) vs response-variable slope (four parameters) model and the EC50 was calculated which is the predicted compound concentration corresponding to a 50% inhibition of the viral cytopathic effect.

[3] = tested on: SARS-CoV-2-GHB-03021/2020; test: microbe, parasite or virus in culture; type: cell-based; conditions: Severe acute respiratory syndrome coronavirus 2, Vero C1008, 96 h; read-out: VeroE6 + CP (EC50)
human cathepsin L = molecular target: T3, human cathepsin L (Homo sapiens, UniProt P07711); test: Cathepsin L assay (Z-FR-AMC fluorescence); type: biochemical; conditions: 10 pM human cathepsin L, 30 mins preincubation; class symbols
T3 construct: purchased R&D Systems
Protocol: For the cathepsin L assay, 10 pM of human cathepsin L (R&D Systems; Minneapolis, MN) was preincubated for 30 mins with test compounds. Reactions were initiated by the addition of a peptide substrate Z-FR-AMC (final concentration 2 μM, Anaspec; Fremont, CA). Fluorescence was measured at 2-minute intervals for 30 mins using a 355/460 excitation/emission filter module on an Envision plate reader (Perkin Elmer; Waltham, MA). The IC50 values were calculated for each assay by fitting the curves using a four-parameter equation in GraphPad Prism.

[4] = HRV3C, duplex assay, 30 mins preincubation, class symbols
[5] = Betacoronavirus 1, 144 h, OC43 in HeLa cells, 6 days at 33° C., class symbols, read-out: EC50

T3 sequence (P07711 114-333): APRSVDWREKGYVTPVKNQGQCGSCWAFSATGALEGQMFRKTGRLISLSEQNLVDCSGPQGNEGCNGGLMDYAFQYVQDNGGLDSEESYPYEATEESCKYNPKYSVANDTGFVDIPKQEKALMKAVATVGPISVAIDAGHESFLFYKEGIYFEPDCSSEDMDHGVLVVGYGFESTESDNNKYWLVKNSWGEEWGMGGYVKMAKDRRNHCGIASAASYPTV
T2 sequence (P03303 1538-1719): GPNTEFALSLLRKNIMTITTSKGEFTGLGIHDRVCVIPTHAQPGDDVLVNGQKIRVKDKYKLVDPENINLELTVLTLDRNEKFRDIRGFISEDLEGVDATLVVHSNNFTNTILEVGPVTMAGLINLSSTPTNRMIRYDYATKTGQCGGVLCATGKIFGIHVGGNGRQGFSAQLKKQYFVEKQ

Compound	IC50 (SARS-Cov-2 3CLpro) [nM]	IC50 (HRV3C; [4]) [nM]	EC50 [1, 5] [nM]	CC50 at 6 days ([2]; class symbols) [nM]	EC50 [3] [nM]	IC50 (human cathepsin L) [nM]	CC50 at 6 days ([2]; numeric bound, unit inferred) [nM]	IC50 (HRV3C) [nM]	EC50 ([1]; Betacoronavirus 1, OC43, HeLa) [nM]
O=C(NC1CC1)C(=O)[C@H](C[C@@H]1CCNC1=O)NC(=O)[C@@H]1CC2(CCN1C(=O)c1cc3ccccc3n1C1CC1)CC2 [Example 8]	< 20	2000 to 20000	100 to 1000	≥ 100000	< 1000	≥ 10000	–	–	–
O=C(NC1CC1)C(=O)[C@H](C[C@@H]1CCNC1=O)NC(=O)[C@@H]1CC2(CCN1C(=O)c1ccc3ccccc3c1)CC2 [Compound 21, (S)-6-(2-naphthoyl)-N—((S)-4-(cyclopropylamino)-3,4-dioxo-1-((S)-2-oxopyrrolidin-3-yl)butan-2-yl)-6-azaspiro[2.5]octane-5-carboxamide]	< 20	200 to 2000	100 to 1000	≥ 100000	< 1000	1000 to 10000	–	–	–
O=C(NC1CC1)C(=O)C(C[C@@H]1CCNC1=O)NC(=O)[C@@H]1CC2(CCN1C(=O)c1nc3ccccc3s1)CC2 (stereo partly drawn) [Compound 23, 3-{[(5S)-6-(1,3-benzothiazole-2-carbonyl)-6-azaspiro[2.5]octan-5-yl]formamido}-N-cyclopropyl-2-oxo-4-[(3S)-2-oxopyrrolidin-3-yl]butanamide]	20 to 200	2000 to 20000	100 to 1000	≥ 100000	1000 to 10000	≥ 10000	–	–	–
O=C(NC1CC1)C(=O)[C@H](C[C@@H]1CCNC1=O)NC(=O)[C@@H]1CC2(CCN1C(=O)c1cccc(-c3ccccc3)n1)CC2 [Compound 41]	200 to 2000	200 to 2000	100 to 1000	–	1000 to 10000	≥ 10000	> 100000	–	–
CN1CCN(c2ccc(C(=O)N3CCC4(CC4)C[C@H]3C(=O)N[C@@H](C[C@@H]3CCNC3=O)C(=O)C(=O)NC3CC3)cc2)CC1 [Example 13, (3S)—N-cyclopropyl-3-{[(5S)-6-[4-(4-methylpiperazin-1-yl)benzoyl]-6-azaspiro[2.5]octan-5-yl]formamido}-2-oxo-4-[(3S)-2-oxopyrrolidin-3-yl]butanamide]	200 to 2000	–	–	≥ 100000	> 50000	1000 to 10000	–	> 10000	> 10000
O=C(NC1CC1)C(=O)[C@H](C[C@@H]1CCNC1=O)NC(=O)[C@@H]1CC2(CCN1C(=O)c1nc(-c3ccccc3)cs1)CC2 [Example 3]	20 to 200	2000 to 20000	100 to 1000	10000 to 100000	1000 to 10000	≥ 10000	–	–	–
O=C(NC1CC1)C(=O)[C@H](C[C@@H]1CCNC1=O)NC(=O)[C@@H]1CC2(CCN1C(=O)[C@@H]1CCCc3ccccc31)CC2 [Compound 32]	20 to 200	200 to 2000	1000 to 10000	≥ 100000	< 1000	≥ 10000	–	–	–
O=C(NC1CC1)C(=O)[C@H](C[C@@H]1CCNC1=O)NC(=O)[C@@H]1CC2(CCN1C(=O)c1nc(-c3ccc(Cl)cc3)cs1)CC2 [Compound 44]	200 to 2000	–	100 to 1000	10000 to 100000	1000 to 10000	≥ 10000	–	> 10000	–
O=C(NC1CC1)C(=O)[C@H](C[C@@H]1CCNC1=O)NC(=O)[C@@H]1CC2(CCN1C(=O)c1csc3ccccc13)CC2 [Compound 28]	< 20	20 to 200	1000 to 10000	≥ 100000	< 1000	≥ 10000	–	–	–
